Reference: PMC8999625, “Antiviral Effects of ABMA and DABMA against Influenza Virus In Vitro and In Vivo via Regulating the Endolysosomal Pathway and Autophagy” (International Journal of Molecular Sciences, 2022)
Entries after “also recorded” stand apart in the source; their conditions may differ. Counter-ions that a name gives are not always drawn.

Test system: A/HK/2671/2019 (H3N2)
Type: cell-based, influenza virus
Details: for EC50: read-out: EC50 ± SD A/HK/2671/2019 (H3N2)

Structure (SMILES) | EC50 | antiviral activity against A/HK/2671/2019 (H3N2)
COc1ccc(Br)cc1CNC12CC3CC(CC(C3)C1)C2 [ABMA, 1-adamantyl (5-bromo-2-methoxybenzyl) amine] | 2830 ± 260 nM | –
NC12CC3CC(CC(C3)C1)C2 [Amantadine, Amantadine hydrochloride] | > 100000 nM | did not show antiviral activity; also recorded: no significant protection
COc1ccc(Br)cc1CNC12CC3CC(C)(CC(C)(C3)C1)C2 [DABMA, 1,3-dimethyl-1-adamantyl (5-bromo-2-methoxybenzyl) amine] | 2950 ± 270 nM | –
CCOC(=O)C1=C[C@@H](OC(CC)CC)[C@H](NC(C)=O)[C@@H](N)C1 [Oseltamivir, Oseltamivir phosphate] | 1790 ± 640 nM | –
NC(=O)c1ncn([C@@H]2O[C@H](CO)[C@@H](O)[C@H]2O)n1 [Ribavirin, ribavirin] | 19800 ± 3260 nM | –
